Assays:
[1] = tested on: BM-induced experimental pulmonary fibrosis in mice; settings: mouse, in vivo
Method: Studies were also performed to determine if macrophages in pulmonary fibrotic lungs might be specifically targeted with folate-linked drugs in vivo. […] (The BM model is widely regarded to be helpful in terms of enabling mechanistic investigations relevant to fibrogenesis in an in vivo context.)
More specifically, eight-week-old C57BL6 male mice from Charles River (average weight 22 g to 25 g) were housed under pathogen-free conditions at room temperature (22° C.) under a 12 hours light-dark cycle. Mice were placed on a folate deficient chow (Envigo Teklad Global Rat Food Pellets) for 1 week prior to the BM or PBS instillation. Fresh water and folate-deficient diet were freely available. All animal procedures were approved by the Purdue Animal Care and Use Committee in accordance with National Institute of Health guidelines.
Thereafter, the mice were anesthetized with ketamine/xylazine and the necks of the mice were shaved using hair remover lotion and then sterilized with 70% alcohol. A small incision was made on the neck to visualize the trachea. Mice were positioned at a 75-degree angle and injected intratracheally with 100 μL sterile PBS or BM (Cayman Chemicals, Ann Arbor, MI; #13877) dissolved in PBS (0.75 mg/kg) using a 1 cc syringe with 26 G needle. Body weights were monitored every other day throughout the experiment.
Lobes of the right lung collected above were weighed, placed in a pressure-tight vial (Supelco Inc., Bellefonte, PA; #27003), and hydrolyzed with 6N HCl (10 ml/g, v/w) in a sand bath at 120° C. for 3.5 hours. The hydrolyzed solution was cooled at 4° C. for 15 min and transferred to a 1.5 ml Eppendorf tube prior to centrifugation at 12,000 rcf for 15 min at 4° C. Supernatant was carefully collected, aliquoted and used for hydroxyproline (HYP) analysis.
For the subsequent HYP analysis, 10 μl of sample was transferred into a 96-well plate and neutralized with 10 μl of 5.3 M sodium hydroxide solution. Isopropanol (40 μl) was then added to each well followed by 20 μl of oxidation buffer and the mixture was incubated on a shaker at room temperature for 5 min. Analytical reagent (260 μl) was added, and the plate was incubated on a shaker at room temperature for 30 seconds and incubated immediately at 60° C. for 25 min. The absorbance was measured at 560 nm (A560) within 15 min. All reagents were prepared according to a previously reported protocol.
For histological analysis of the lung sections, fixed lungs (see above) were embedded in paraffin, sectioned and stained with hematoxylin-eosin (H&E), Masson's trichrome or F3 (anti-mouse FRβ antibody). Tissue sections were examined in a blinded manner by a licensed pathologist. More than 90×10^6 cells were quantified per section using Aperio-Image Scope (Leica Biosystems, Wetzlar, DE).
For this, BM-treated mice were intravenously injected every other day beginning on day 10 with either vehicle (3% DMSO in PBS) or Compound 1B (see FIG. 8A). […] In BM-induced experimental pulmonary fibrosis in mice, inflammation is known to persist for about 9-10 days after BM installation. Because, inflammation to fibrosis switch happens in this model approximately day 9 to day 14, and profibrotic markers start appearing at about day 10, dosing began on day 10 (FIG. 8A).
Two doses were given every other day till day 21. The individual doses on a day are separated by 6 hours to prevent any “tolerance” to TLR agonists. Mice were then sacrificed on day 21 and subjected immediately to bronchoalveolar lavage followed by resection of the lungs for immunohistochemistry and quantitation of collagen and hydroxyproline.

[2] = tested on: M2-induced THP-1 macrophages; assay: Secreted CCL18 and IL-1β in THP-1 supernatants by ELISA; assay type: cell-based, human; settings: THP-1 cells of FIGS. 14A-14C, low concentration range (0.1-10 nM)
[3] = tested on: THP-1 cells polarized to M2-like macrophages; assay: Reprogramming of M2-like THP-1 macrophages, marker gene analysis by qPCR; assay type: cell-based, human; settings: M2-induced THP-1, 2 hours, qPCR
Method: THP-1 cells were seeded into 96-well plates at a density of 60,000 cells/well. Cells were differentiated into unpolarized macrophages by 48 hours incubation with 200 nM PMA followed by 24 hours incubation in fresh RPMI medium. […] Cultures were maintained at 37° C. in a humidified 5% CO2 incubator.
Total RNA was isolated from 1×10^5 —2×10^5 macrophages using a Quick-RNA™ MicroPrep kit (Zymo Research, Irvine, CA) according to the manufacturer-recommended protocol. […] IL-6, CXCL10, IFNα, IFN-γ and CD86 were used as markers for an M1 phenotype, while CCL18, CD206, CD163 and Arg1 were employed as markers for the M2 phenotype. IL-1β, PDGFβ, MMP9 and TIMP 3 were measured as indicators of a profibrotic phenotype. IRAK-4 was used as an indicator of TLR7 stimulation. To control for specificity of the amplification products, a melting curve analysis was performed. […] Each sample was analyzed independently in triplicate for each marker.
Primarily, human monocytic (THP-1) cells were induced to the M2-like phenotype using the methods and materials previously described. In particular, THP-1 cells were seeded into 96-well plates at a density of 60,000 cells/well. Cells were differentiated into unpolarized macrophages by 48 h incubation with 200 nM PMA followed by 24 hours incubation in fresh RPMI medium. The resulting macrophages were polarized to an M2-like phenotype by incubation with 20 ng/ml IL-4, 20 ng/ml IL-13, and 5 ng/mL IL-6 for 48 h. Cultures were maintained at 37° C. in a humidified 5% CO2 incubator.
In addition to the nonconjugated TLR7 agonist, conjugated compounds of the present disclosure were likewise evaluated. […] The cells were subsequently harvested for gene analysis by qPCR and the relative expression of CCL18 (FIG. 14A), CD206 (FIG. 14B), and IL-1β (FIG. 14C) analyzed.

FRβ positive macrophages = settings: mouse, in vivo
Method: To evaluate if profibrotic lung macrophages in these mice can be specifically targeted with folate-linked drugs, 10 days after the instillation, 10 nmol (for in vivo imaging) or 100 nmol (for in vivo labeling) of a folate-linked, near infrared fluorescent dye (OTL38) with or without 200-fold excess of FA-glucosamine (a competitor of OTL38) was injected into the tail veins of BM-treated mice and the dye uptake in the major organs was evaluated.
Finally, for the in vivo folate imaging studies, major organs (heart, lung, spleen, liver, small intestine, large intestine, and kidney) were resected and imaged using an AMI live imager (Spectral Instruments Imaging, Tucson, AZ). For in vivo folate receptor labeling studies, lungs of the mice were harvested immediately following euthanasia, digested with a lung dissociation kit (Miltenyi Biotec, Bergisch Gladbach, DE; #130-098-427) as described by gentleMACS Octo Dissociator with Heathers (Miltenyi Biotec, Bergisch Gladbach, DE; #130-096-427) as described by manual and filtered through a 70 μm cell strainer (Miltenyi Biotec, Bergisch Gladbach, DE; #130-098-462). […] Labeled macrophages were then washed twice in PBS, stained with 7AAD (viability stain) for 15 min and analyzed by flow cytometry using BD Accuri C6 Software (BD Biosciences, San Jose, CA). […]

FRβ = biological target: T1, FRβ (Mus musculus, UniProt Q05685); settings: in vivo
T1 construct: from tissue; host or cells: major organs (heart, lung, spleen, liver, small intestine, large intestine, kidney) of bleomycin- or PBS-treated C57BL/6 mice; FRβ-expressing lung macrophages
Method: FIGS. 7C and 7D show FRβ IHC staining of human IPF lung tissue (FIG. 7C) and healthy human lung tissue (FIG. 7D). […] After 2 hours, mice were sacrificed prior to analysis.

T1 sequence (Q05685 21-227): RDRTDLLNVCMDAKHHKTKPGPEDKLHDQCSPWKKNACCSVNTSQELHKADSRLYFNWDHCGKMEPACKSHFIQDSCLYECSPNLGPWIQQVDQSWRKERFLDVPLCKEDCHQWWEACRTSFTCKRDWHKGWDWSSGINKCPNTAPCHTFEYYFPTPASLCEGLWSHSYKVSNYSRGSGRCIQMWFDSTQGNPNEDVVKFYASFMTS

Row | Molecule | secretion of CCL18 protein [2] | CCL18 relative expression [3] | CD206 relative expression [3] | IL-1β relative expression [3] | effectiveness in reducing profibrotic markers relative to the other compounds [3] | other results
1 | CCCCc1nc2c(N)nc3ccccc3c2n1CC(C)(C)O [Compound 1A, 1-(4-Amino-2-butyl-1H-imidazo[4,5-c]quinolin-1-yl)-2-methylpropan-2-ol] |  |  |  |  |  | body weight change [1]: rapid body weight loss followed by death
2 | Nc1nc(C(F)(F)F)cc2c1[nH]c(=O)n2Cc1ccc(NCCN2CCCC(CO)C2)nc1 (centres unmarked) [Compound 3A] | downregulated |  |  |  |  | 
3 | Nc1nc2ncc(CNc3ccc(C(=O)NC(CCC(=O)N[C@@H](CSSCCOC(=O)OCC4CCCN(CCNc5ccc(Cn6c(=O)[nH]c7c(N)nc(C(F)(F)F)cc76)cn5)C4)C(=O)O)C(=O)O)cc3)nc2c(=O)[nH]1 (some centres unmarked) [Compound 3B] | downregulated | reduced | reduced | reduced |  | 
4 | Nc1nc2ncc(CNc3ccc(C(=O)N[C@@H](CCC(=O)NCCOCCOCCOCCOCCOCCOCCOCCOCCOCCOCCOCCOCCOCC4CCCN(CCNc5ccc(Cn6c(=O)[nH]c7c(N)nc(C(F)(F)F)cc76)cn5)C4)C(=O)O)cc3)nc2c(=O)[nH]1 (some centres unmarked) [Compound 3C] | downregulated | reduced | reduced | reduced | most effective relative to the other compounds | benefit to the subject mice [1]: did not show measurable benefit; hydroxyproline (HP) [1]: decreasing; number of BALF cells [1]: decreasing; survival rates [1]: increased the survival rates
5 | Nc1nc2ncc(CNc3ccc(C(=O)N[C@@H](CCC(=O)NCCOCCOCCOCCOCC4CCCN(CCNc5ccc(Cn6c(=O)[nH]c7c(N)nc(C(F)(F)F)cc76)cn5)C4)C(=O)O)cc3)nc2c(=O)[nH]1 (some centres unmarked) [Compound 3D] | downregulated | reduced | reduced | reduced | most effective relative to the other compounds | 
6 | OTL38 |  |  |  |  |  | folate-dye retention with 200-fold excess folate-glucosamine (FRβ positive macrophages): blocked essentially all folate-dye retention; OTL38 fluorescence in organs of healthy mice (FRβ): only observed in the kidneys; lung accumulation with 200-fold excess folate-glucosamine (FRβ): nearly quantitative blockade of lung accumulation
